Assay: in vitro
Settings: human, hela cells, % viability

SMILES | viability at 28.5 h, 10 µM | viability at 28.5 h, 10 µM (bulk resorufin, single well)
N#CCCCN1CCC(Oc2cncc(OCCN3CCOCC3)n2)C1 (stereo not shown) [CBK084495] | 103% | –
c1ccc(CCN2CCC(Oc3cncc(OCCN4CCOCC4)n3)C2)cc1 (stereo not shown) [CBK084497] | 87.6% | –
COc1ccc(-n2[nH]c(C)c(Cc3c(Cl)cccc3Cl)c2=O)cc1 [CBK084521] | 94.5% | –
CCC1CCCCN1C(=O)c1ccc(C)s1 (stereo not shown) [CBK084526] | 96.6% | –
CCC1CCCCN1C(=O)c1ccc(OC)c(OC)c1 (stereo not shown) [CBK084527] | 117% | –
CCC1CCCCN1C(=O)C1CCCCC1 (stereo not shown) [CBK084528] | 90% | –
CC(C)(C)OC(=O)N1CCN(Cc2ccc(N)c3ccccc23)CC1 [CBK084530] | 109% | –
CSc1ccc(-c2cnc(N)c(-c3ccc(C(=O)N4CCOCC4)cc3)n2)cc1 [CBK084539] | 109% | –
COc1ccc2[nH]c3c(c2c1)CCNC31CCN(CCSc2ccccc2)C1 (stereo not shown) [CBK084541T] | 92% | –
O=C(Nc1[nH]nc(O)c1Cc1c(Cl)cccc1Cl)C1CCCCC1 [CBK084558] | 92.9% | –
O=C(CCN1CCCC12CCc1[nH]c3ccccc3c1C2)c1ccc(F)cc1 (stereo not shown) [CBK084593] | 92.6% | –
c1ccc(OCCN2CCC3(C2)NCCc2[nH]ccc23)cc1 (stereo not shown) [CBK084595T] | 90.9% | –
COC(=O)NCCc1c[nH]c2ccc(OC)cc12 [CBK084597] | 98% | –
CN1CCN(C(c2ccc(O)cc2)c2nnnn2Cc2ccccc2)CC1 (stereo not shown) [CBK084719] | 94.8% | –
Cc1ccc(-c2nnn(CC(=O)N(CCO)C(C(=O)NC3CCCC3)c3ccc(F)cc3)n2)o1 (stereo not shown) [CBK084756] | 89.2% | –
NC(=O)c1c(NC(=O)CSc2nnc(-c3ccccc3)n2CC2CCCO2)sc2c1CCC2 (stereo not shown) [CBK084789] | 110% | –
O=C(Nc1ccccc1)NC1CC2CCC(C1)N2Cc1nnnn1Cc1ccco1 (stereo not shown) [CBK085071] | 107% | –
CC(C)CC(NC(=O)c1ccccc1)C(=O)OCC(=O)Nc1nc2ccccc2s1 (stereo not shown) [CBK085134] | 92.5% | –
Cc1ccc(C(=O)N(Cc2ccncc2)C2CCCCC2)cc1C [CBK085386] | 97.9% | –
CCSc1nnc(-c2cccc(C)c2)n1CC1CCCO1 (stereo not shown) [CBK085413] | 93.1% | –
CSc1nnc(-c2cccc(C)c2)n1CC1CCCCC1 [CBK085418] | 100% | –
CCSc1nnc(-c2cccc(C)c2)n1CC1CCCCC1 [CBK085419] | 96.3% | –
Cc1cccc(-c2nnc(SCC3CC3)n2CC2CCCCC2)c1 [CBK085423] | 87.7% | –
Nc1ncc(Br)nc1N1CCC[C@@H]1CO [CBK085450] | 105% | –
COc1cc(N2CCCNCC2)ncn1 [CBK085485C] | 91.6% | –

SMILES | viability at 28.5 h, 10 µM | viability at 28.5 h, 10 µM (bulk resorufin, single well)
OC[C@H]1CCCN1c1nc(Br)cn2ccnc12 [CBK085496] | 101% | –
CCOC(=O)N1CCC2(CC1)Oc1ccc(-c3ccccc3)cc1O2 [CBK085500] | – | 101%
O=C1N=C(NC2CCCCCC2)SC1C(=O)N1CCCCCC1 (stereo not shown) [CBK085513] | 93.1% | –
CS(=O)(=O)Nc1ccc2cc(-c3ccsc3)cnc2n1 [CBK085665] | 102% | –
COc1ccc(C(C)C)cc1-c1cnc2nc(NS(C)(=O)=O)ccc2c1 [CBK085672] | 102% | –
CS(=O)(=O)Nc1ccc2cc(-c3ccc(Oc4ccccc4)cc3)cnc2n1 [CBK085674] | 98% | –
COc1cc(F)ccc1-c1nc2ncccc2cc1NS(C)(=O)=O [CBK085692] | 89% | –
CS(=O)(=O)Nc1cc2cccnc2c(-c2ccc3c(c2)CCO3)n1 [CBK085705] | 101% | –
Nc1cc2ccccc2c(-c2ccsc2)n1 [CBK085710] | 85.3% | –
CC(C)(C)c1ccc(-c2nc(N)cc3ccccc23)cc1 [CBK085720] | 109% | –
Nc1cc2ccccc2c(-c2cccc(C(F)(F)F)c2)n1 [CBK085721] | 101% | –
Nc1cc2ccccc2c(-c2ccc3c(c2)OCCCO3)n1 [CBK085722] | 102% | –
CS(=O)(=O)c1ccc(-c2nc(N)cc3ccccc23)cc1 [CBK085724] | 96.1% | –
COc1cc(-c2nc(N)cc3ccccc23)cc(OC)c1OC [CBK085726] | 102% | –
CCNC(=O)Nc1cc2ccccc2c(-c2ccc(F)cc2OC)n1 [CBK085731] | 62.9% | –
COc1cc(-c2nc(NC(=O)C(C)C)cc3ccccc23)cc(OC)c1OC [CBK085741] | 106% | –
CS(=O)(=O)Nc1cc2ccccc2c(-c2cccnc2)n1 [CBK085747] | 108% | –
CC(C)C(=O)Nc1cc2ccccc2c(-c2cc(F)cc(F)c2)n1 [CBK085775] | 95.4% | –
CC(C)C(=O)Nc1cc2ccccc2c(-c2ccc(N(C)C)cc2)n1 [CBK085776] | 90.6% | –
COc1ccc([C@@]23CC[C@@H](NC(=O)Nc4ccc(Cl)cc4Cl)C[C@@H]2CN(C)C3)cc1OC [CBK085798T] | 88.5% | –
Cc1ccc(C(=O)N[C@@H]2C[C@H](C)CC[C@H]2C(C)C)cc1C [CBK085823] | 87.1% | –
CC(=O)Nc1ccc(Sc2cnccn2)cc1 [CBK085838] | 89.7% | –
Oc1ccccc1Sc1cnccn1 [CBK085840] | 104% | –
c1ccc2c(Sc3cnccn3)cccc2c1 [CBK085841] | 90.7% | –
Nc1ccccc1Sc1ccccn1 [CBK085854] | 103% | –

SMILES | viability at 28.5 h, 10 µM | viability at 28.5 h, 10 µM (bulk resorufin, single well)
c1ccc(Sc2cccc3ccccc23)nc1 [CBK085856] | 91.8% | –
CCOC(=O)c1cnc(SCCc2ccccc2)nc1N [CBK085871] | 88.1% | –
Cc1nc(-c2ccc(S(=O)(=O)NCC3CC3)s2)cs1 [CBK085873] | 83.9% | –
CC(C)(C)c1ccc(NC(=O)N2CCCN(Cc3ccccc3)CC2)cc1 [CBK085876] | 116% | –
O=S(=O)(c1ccccc1)c1ccccc1C(F)(F)F [CBK085887] | 104% | –
Cc1ccc(S(=O)(=O)N(C)CCCC#N)cc1 [CBK085945] | 106% | –
NC(=O)C1CCN(C(=S)NC2CC3C=CC2C3)CC1 (stereo not shown) [CBK085970] | 97.4% | –
CC(=O)c1nnn(-c2ccc(Cl)cc2Cl)c1C [CBK085972] | 86.7% | –
CC1CCCN(C(=S)NC2CC3CCC2C3)C1 (stereo not shown) [CBK085999] | 92.7% | –
CC(C)c1ccc(NC(=O)CN2CCN(c3ccc(C(F)(F)F)cn3)CC2)cc1 [CBK086000] | 81.9% | –
CC(C)(C)OC(=O)N1CCC(CNS(=O)(=O)c2cccs2)CC1 [CBK086019] | 100% | –
Nc1nc(-c2ccc3c(c2)CCC(=O)N3)cs1 [CBK086133] | 80.8% | –
O=S(=O)(NCc1ccccc1)c1ccc(Cl)cc1 [CBK086159] | 86.7% | –
CCCc1cnc(N2CCN(CC(=O)Nc3ccc(C(C)=O)cc3)CC2)nc1 [CBK086194] | 104% | –
COc1cc2c(cc1OC)C(C)N(C(=O)Nc1ccc3c(c1)OCCO3)CC2 (stereo not shown) [CBK086204] | 94.8% | –
CCNc1nc(=S)[nH]c2sc3c(c12)CCC(C)C3 (stereo not shown) [CBK086242] | 89.2% | –
S=c1[nH]nc(-c2ccc(Cl)cc2)n1-c1cccnc1 [CBK086427] | 83.6% | –
CNC(=O)Nc1ccc(C(C)(C)C)cc1Br [CBK086434] | 111% | –
COc1ccccc1C1CCN(C(=O)c2ccc(C(C)(C)C)cc2)CC1 [CBK086469] | 84.3% | –
O=C(O)/C=C/C(=O)Nc1ccccc1Br [CBK086488] | 106% | –
Cc1cc(COC(=O)Nc2ccc(Cl)cc2)no1 [CBK086560] | 93.4% | –
CN(C)C(=O)CSc1cnc2ccccc2n1 [CBK086626] | 86.3% | –
CCOC(=O)c1cnc2cc(C)ccn2c1=O [CBK086650] | 93.1% | –
COC(=O)C1CC(O)CN1S(=O)(=O)c1cccs1 (stereo not shown) [CBK086668] | 87% | –
O=C1CC(c2ccccc2F)C2=C(COC2=O)N1 (stereo not shown) [CBK086692] | 92% | –

SMILES | viability at 28.5 h, 10 µM | viability at 28.5 h, 10 µM (bulk resorufin, single well)
CNS(=O)(=O)c1c(C)nn(-c2ccccc2)c1C [CBK086715] | 102% | –
CN(C(=O)c1ccccc1N)c1ccccc1 [CBK086716] | 97.6% | –
Cc1ccc(NC(=O)c2ccccc2)s1 [CBK086724] | 95.2% | –
CCOC(=O)c1[nH]c2ccccc2c1NC(C)=O [CBK086755] | 92.7% | –
O=C1c2ccccc2C(=O)N1CCc1c[nH]c2ccc(O)cc12 [CBK086794] | 76% | –
COc1ccc(C(=O)NC(N2CCCCC2)C(Cl)(Cl)Cl)cc1 (stereo not shown) [CBK087021] | 89.1% | –
CN(Cc1ccccc1)C(C#N)c1c[nH]c2ccccc12 (stereo not shown) [CBK087062] | 95.3% | –
O=C1NCCCc2nc(Nc3ccccc3)sc21 [CBK087091] | 83.8% | –
CC1CN(C)C(C)CC1OC(=O)C(c1ccccc1)c1ccccc1 (stereo not shown) [CBK087393] | 105% | –
C/C(Cl)=C\CN1C(=O)C(=O)c2cc(C)ccc21 [CBK087601] | 92.3% | –
O=C(CNC(=O)c1ccccc1Cl)Nc1ccc(Br)cc1C(=O)c1ccccc1 [CBK087691] | 101% | –
O=C(CSCc1ccccc1)Nc1ccc(S(=O)(=O)N2CCOCC2)cc1 [CBK087885] | 93.3% | –
CCc1ccccc1NC(=O)Cc1ccc(OC)cc1 [CBK087898] | 85.7% | –
COc1ccc(OC(=O)c2cccc(F)c2)c(C(C)=O)c1 [CBK088044] | 89% | –
O=C(NCCOc1ccccc1)NC(=O)C1CCNCC1 [CBK088187T] | 119% | –
CCCCNc1nccnc1-c1ccccc1 [CBK088477] | 90.1% | –
C=CCNc1nccnc1-c1cccc(O)c1 [CBK088505] | 88.2% | –
CCNc1nccnc1-c1ccncc1 [CBK088586] | 119% | –
CCNc1nccnc1-c1ccc(O)cc1 [CBK088589] | 108% | –
c1ccc(-c2nccnc2NCc2ccco2)cc1 [CBK088642] | 94.3% | –
CC(C)CNc1nccnc1-c1cccc(C=O)c1 [CBK088744] | 100% | –
CCC(CO)Nc1nccnc1-c1ccoc1 (stereo not shown) [CBK088756] | 100% | –

— publication PMC12040169 (PLOS Biology, 2025)
